Test results from patent US5723463A, “Pyrido [3,2-E]pyrazinones with anti-asthmatic action and processes for their manufacture” (ASTA Medica Aktiengesellschaft, priority 1995, dated 1998).

Assays:
[1] = system: Ovalbumin-induced eosinophilia; assay: Asthmatic late phase reaction: ovalbumin-induced eosinophilia in guinea pigs (BAL); type: in vivo, guinea pig; details: 1 mg/kg i.p., 2 hours before allergen challenge, BAL 24 hours after
Protocol: Male guinea pigs (250-300 g, Pirbright white, Charles River Wiga) are actively sensitised by s.c. injection of ovalbumin (10 μg+100 mg aluminium hydroxide) and boosted 2 weeks later. One week after the boosting (10 μg+100 mg aluminium hydroxide) the animals are exposed of an aerosol of nebulised 0.5 % ovalbumin solution for 20 seconds. 24 hours later, the bronchoalveolar lavage (BAL) is carried out using 2×5 ml sodium chloride solution on animals sacrificed with an overdose of pentobarbital. The lavage liquid is pooled and centrifuged for 10 minutes. The cell pellet is suspended in 1 ml physiological sodium chloride solution and the eosinophils are counted microscopically in a counting chamber using a Becton-Dickinson eosinophil kit. The eosinophils are counted for each guinea pig. The mean value is calculated for each group. The inhibition of the eosinophils for the group treated with substance is obtained using the formula:
(A-C)-(B-C)/(A-C)×100=% inhibition
A=Eosinophils in the untreated control group challenged with ovalbumin
B=Eosinophils in the group treated with the substance and challenged with ovalbumin
C=Eosinophils in the control group not challenged with ovalbumin
The substance was applied 2 hours before allergen challenge p,o, (in 1% methocel) or i.p. (in 0.5% methocel). The control groups receive 1% methocel p.o. or 0.5% methocel i.p. 2 hours before allergen challenge.

[2] = biological target: T1, PDE V (Homo sapiens, UniProt O76074); assay: PDE V inhibition (in vitro), cGMP-specific PDE isolated from human blood platelets; type: biochemical; details: substrate 0.5 μM cGMP
T1 construct: PDE V (cGMP-specific) is isolated from human blood platelets; from tissue; host or cells: human blood platelets
Protocol: Phosphodiesterase (PDE) activity is determined with a few modifications (Bauer, A. C.; Schwabe, U., An improved assay of cyclic 3',5'-nucleotide phosphodiesterase with QAE Sephadex A-25. Naunyn-Schmiedeberg's Arch. Pharmacol. 311 193-198 (1980)) after the method described by Thompson et al. (Thompson, W. J.; Appleman, M. M., Assay of cyclic nucleotide phosphodiesterase and resolution of multiple molecular forms of the enzyme. Adv. Cycl. Nucl. Res. 10 69-92 (1979)) The reaction mixture contains 40 mM Tris-HCl (pH 7.4), 5 mM MgCl2, 0.5 μM cAMP or cGMP, [^3 H]cAMP or [^3 H]cGMP (approx. 20,000 cpm/test) and the other components needed to record the individual isoenzymes (see below). The final volume is 200 μl. Test substances are prepared as stock solutions in DMSO. The DMSO concentration in the reaction mixture is the same or less than 1% v/v. The PDE activity is not influenced at this DMSO concentration. After pre-incubation for 5 minutes at 37° C. the reaction is started by adding the substrate (cAMP or cGMP). The samples are incubated for a further 15 minutes at 37° C. The reaction is stopped by adding 50 μl 0.2N HCl. The samples remain in the ice for a further 10 minutes. […] The radioactivity of the individual fractions is recorded using scintigraphy. […]

[3] = system: PDE IV; assay: PDE IV inhibition (in vitro), cAMP-specific PDE of cytosol of human polymorphonuclear leucocytes; type: biochemical; details: substrate 0.5 μM cAMP, motapizon 1 μM
Protocol: Phosphodiesterase (PDE) activity is determined with a few modifications (Bauer, A. C.; Schwabe, U., An improved assay of cyclic 3',5'-nucleotide phosphodiesterase with QAE Sephadex A-25. Naunyn-Schmiedeberg's Arch. Pharmacol. 311 193-198 (1980)) after the method described by Thompson et al. (Thompson, W. J.; Appleman, M. M., Assay of cyclic nucleotide phosphodiesterase and resolution of multiple molecular forms of the enzyme. Adv. Cycl. Nucl. Res. 10 69-92 (1979)) The reaction mixture contains 40 mM Tris-HCl (pH 7.4), 5 mM MgCl2, 0.5 μM cAMP or cGMP, [^3 H]cAMP or [^3 H]cGMP (approx. 20,000 cpm/test) and the other components needed to record the individual isoenzymes (see below). The final volume is 200 μl. Test substances are prepared as stock solutions in DMSO. The DMSO concentration in the reaction mixture is the same or less than 1% v/v. The PDE activity is not influenced at this DMSO concentration. […] The radioactivity of the individual fractions is recorded using scintigraphy.
The PDE IV (cAMP-specific) activity is determined after the method described by Schudt et al. (Schudt C.; Winter S.; Forderkurz S.; Hatzelmann A.; Ullrich V., Influence of selective phosphodiesterase inhibitors on human neutrophil functions and levels of cAMP and Ca. Naunyn-Schmiedeberg's Arch. Pharmacol. 344, 682-690 (1991)) describe a method in the cytosol of human polymorpho-nuclear leucocytes. […]

[4] = system: Histamine precontracted trachea; assay: Influence on the trachea precontracted using histamine; details: Cavia porcellus, guinea pig trachea
Protocol: Guinea pigs are exsanguinated under narcosis. The trachea is then prepared free from adjacent tissue and cut into five equal parts (at least 3 trachea-rings wide). The trachea parts are suspended in a bath filled with a nutrient solution (Krebs-Henseleit). The strength of contraction of the trachea can be measured using force transducers. After suspension, a 15-minute acclimatisation period is allowed. The trachea is then totally relaxed using isoprenaline (1×10^-7 mol/l). The bath vessel is then rinsed. A contraction maximum is triggered using metacholine (10×10^-5 mol/l). The bath vessel is then rinsed again. Histamine ([…]) is then added. The contraction maximum is reached after approx. 10 minutes. The test substance is then added to the bath in increasing concentration and the contraction-triggering effect determined in percent to an untreated control. The mean contraction-triggering concentration is calculated using regression apparatuses. To check the function of the organs, isoprenaline (1×10^-5 mol/l) is then added to the bath to see whether the organs are still able to relax.

## CCCn1c(=O)c2c(C)nc(CC)n2c2nc(OC)ccc21 [embodiment 1, 1-ethyl-8-methoxy-3-methyl-5-propyloimidazo[1,5-a]pyrido[3,2-e]-pyrazinone]
[1]
  Ovalbumin-induced eosinophilia: % inhibition of eosinophils: 74%
[2]
  IC50: 95 nM
[3]
  IC50: 100 nM
[4]
  IC50: 700 nM
